Columns and labels:
[1] = in vivo activity against experimental infection in mice caused by Trichomonas vaginalis (ED50, Therapeutical Index); details: mouse, in vivo, po; ratio LD50/ED50, per os mice; read-out: Therapeutical Index (TI)
Experimental: (§1) This activity, expressed as an ED50 value, is moreover coupled with a very low toxicity, expressed as an LD50 value, which was determined substantially according to the method described by Lichtfield and Wilcoxon, Journ. Pharm. Exp. Ther., 96, 99, 1949. In representative experiments, the following results have been obtained:
(§2) which indicate that the compound of the invention is a very useful and promising anti-Trichomonas agent. This becomes even more evident if one considers its Therapeutical Index (TI). Said parameter, which is mathematically expressed by the following ratio LD50 /ED50 gives a reliable idea about the safety of a drug and, considering how it is calculated, it is clear that the higher the TI, the safer the drug is; a high value of the Therapeutical Index means in fact a low effective dose (ED50) in comparison with the lethal dose (LD50). […] As an example, the 5-isopropyl-1-methyl-2-nitroimidazole, described in U.S. Pat. No. 3,499,967 and therein mentioned as one of the most outstanding in vivo active 2-nitroimidazoles against Trichomonas vaginalis, has a Therapeutical Index of 102.
(§3) 1. In the present experiment there are compared the anti-Trichomonas in vivo activities and the Therapeutical Indexes (TI) of the compound of the invention (hereinafter referred to as compound A) and four 5-hydroxy alkyl-2-nitroimidazoles described or falling within prior art patents. In these four compounds the hydroxy group is bound to a primary or secondary carbon atom which not necessarily is linked to the imidazole nucleus.
(§4) 2. In the following set of experiments there are evaluated the variations of Therapeutical Index (positive or negative) which are observed when some 5-alkyl-2 -nitroimidazoles known from the prior art are compared with the corresponding 5-hydroxyalkyl-2-nitroimidazoles, including the new compound A. Obviously all of the compounds are tested for their in vivo activity against Trichomonas vaginalis. […] With reference to the hereinbelow reported table and the first four pair of compounds, the results clearly indicate that the variations of Therapeutical Index which are observed are slightly positive or even negative i.e., that the Therapeutical Index of the known 5-hydroxyalkyl-2-nitroimidazoles either is worse than or is substantially the same as that of the corresponding 5-alkyl compounds: this practically means that no appreciable therapeutical results have been obtained, and that, considering the last pair of substances i.e., compound K and compound A (the compound of the invention), an unrelevant or unfavorable variation of the Therapeutical Index would have to be expected as well. On the contrary, a dramatically favorable and unpredictable variation of this parameter is observed and, clearly, this effect is to be interpreted as a remarkable improvement of the therapeutical (anti-Trichomonas) properties:
(§5) 3. In the third experiment there are evaluated the effects on the Therapeutical Index of the substitution with two methyl groups of two hydrogen atoms of the methyl radical at the 5-position of compound F namely [drawing 17] in comparison with the effects on the same parameter caused by the substitution with two methyl groups of the two hydrogen atoms of the hydroxymethyl group of compound B, namely [drawing 18] The compounds are obviously tested for their anti-Trichomonas in vivo properties.

Trichomonas vaginalis = experiment: as above; details: for ED50: po; for ED50 / ED50 mg/kg per os mice: per os, mice, Trichomonas vaginalis infection; for in vivo anti-Trichomonas activity (in words): experimental infection in mice; for Therapeutical Index (comparison in words): mouse, in vivo
Experimental: as §1, §2, §3, §4, §5

[2] = toxicity (LD50) per os in mice, substantially according to Lichtfield and Wilcoxon; details: mouse, in vivo, po
Experimental: as §1, with “obtained: […]” for “obtained:”

[3] = usual in vitro antibacterial tests
From the text: Though the compound of the present invention is formally embraced by the foregoing general formula, it is to be noted that in the cited Belgian Patent only concrete examples of 5-hydroxy lower alkyl substituents are reported, wherein the hydroxy lower alkyl groups are 2-hydroxyethyl or 2-hydroxypropyl, i.e. only primary or secondary alcohols are disclosed.

SMILES | selectivity ratio [1] | ED50 (Trichomonas vaginalis) [mg/kg] | LD50 [2] [mg/kg] | other results
Cn1c(CCO)cnc1[N+](=O)[O-] | 43 | 35 | 1500 | 
Cc1cnc([N+](=O)[O-])n1C | 23.4 | 10.5 | 246 | 
Cn1c(C(C)(C)O)cnc1[N+](=O)[O-] [Compound A, 5-[(1-hydroxy-1-methyl)ethyl]-1-methyl-2-nitroimidazole] | 317 | 2.3 | 730 | in vivo anti-Trichomonas activity (in words) (Trichomonas vaginalis): far highest in vivo activity; in vivo anti-Trichomonas activity (in words) (Trichomonas vaginalis; listed as compound of the invention): outstanding in vivo activity; antibacterial properties in vitro (in words) [3]: very interesting antibacterial properties
Cn1c(CO)cnc1[N+](=O)[O-] [Compound B, 5-hydroxymethyl-1-methyl-2-nitroimidazole, reference compound] |  |  |  | Therapeutical Index (comparison in words) (Trichomonas vaginalis): much lower than that of compound A
COC(C)(C)c1cnc([N+](=O)[O-])n1C [Compound of formula V, 5-[(1-methoxy-1-methyl)ethyl]-1-methyl-2-nitroimidazole] | 160 | 2.18 |  | in vivo anti-Trichomonas activity (in words) (Trichomonas vaginalis): valuable degree of in vivo anti-Trichomonas activity; Therapeutical Index (comparison in words) (Trichomonas vaginalis): not so high as that of the compound of formula I; LD50 mg/kg per os mice [2]: 350 mg/kg
CC(C)c1cnc([N+](=O)[O-])n1C [K, 5-isopropyl-1-methyl-2-nitroimidazole, reference compound] | 102 |  |  | 
Cn1c(CO)cnc1[N+](=O)[O-] [drawing 3] | 24.8 | 14.1 | 350 | 
CC(O)Cc1cnc([N+](=O)[O-])n1C (stereo not drawn) [drawing 5] | 39.4 | 17 | 670 | 
CC(CO)c1cnc([N+](=O)[O-])n1C (stereo not drawn) [drawing 6] | 38.8 | 20 | 776 | 
CC(O)Cc1cnc([N+](=O)[O-])n1C (stereo not drawn) [drawing 12] |  |  |  | ED50 mg/kg per os mice (Trichomonas vaginalis): 17 mg/kg; LD50 mg/kg per os mice [2]: 670 mg/kg
CC(C)c1cnc([N+](=O)[O-])n1C [drawing 13] |  | 2.6 |  | LD50 mg/kg per os mice [2]: 265 mg/kg
CC(CO)c1cnc([N+](=O)[O-])n1C (stereo not drawn) [drawing 14] |  |  |  | ED50 mg/kg per os mice (Trichomonas vaginalis): 20 mg/kg
CCc1cnc([N+](=O)[O-])n1C [reference compound] | 38 | 9.8 | 372 | 
CCCc1cnc([N+](=O)[O-])n1C [reference compound] | 21.6 | 26 | 560 | 
